According to patent US20190040025A1, “INDOLEAMINE 2,3-DIOXYGENASE INHIBITOR, PREPARATION METHOD THEREFOR, AND APPLICATION” (Jiangsu Hansoh Pharmaceutical Group Co., Ltd., priority 2016, published 2019):

How the values were obtained:
[1] = Pharmacokinetic (PK) analysis of rat plasma; type: in vivo; conditions: Sprague-Dawley, po, 20 mg/kg, SD rats, single gavage, 20 mg/10 mL/kg
Experimental: The pharmacokinetics test of the test compound was performed with Sprague Dawley (SD) rats (Shanghai Slac Laboratory Animal Co., LTD).
Mode of administration: Single gavage.
U Dosage: 20 mg/10 mL/kg.
Formulation prescription: 3% dimethylacetamide and 20% hydroxypropyl-3-cyclodextrin.
Sampling points: before administration and 15 minutes, 0.5, 1, 2, 4, 6, 8 and 24 hours after administration.
Plasma sampling and sample processing: • 1) 0.2 ml of intravenous blood was collected and placed in an EDTA-2K tube. The blood was centrifuged at 4° C. for 5 minutes at 6,000 rpm to separate the plasma, which was stored at −80° C. • 2) 160 μL of acetonitrile were added to 40 μL of plasma sample, standard, and internal reference. The mixture was shaken vertically for 3 minutes, and centrifuged at 4000 rpm for 10 minutes. 100 μL of the supernatant were taken, and then added with 100 μL of deionized water and mixed well. 100 μL of the resulting solution was taken for LC/MS/MS analysis. The instrument for plasma LC/MS/MS analysis was AB Sciex API 4000.
Liquid Chromatography Analysis: • Liquid chromatography conditions: Shimadzu LC-20AD pump • Chromatographic column: phenomenex Gemiu 5 μm C18 50×4.6 mm • Mobile phase: solution A was 0.1% formic acid solution, and solution B was acetonitrile • Flow rate: 0.8 mL/min • Elution time: 0-3.01 minutes and the eluent was as follows:
• Mass spectrometry analysis: setup conditions of mass spectrometer: positive ion electrospray ionization (ESI) mode. • Experimental results: the main parameters of pharmacokinetics were calculated by WinNonlin 6.1 and the experimental results are shown in the following table: […]

[2] = test system: mouse pancreatic cancer cell line PAN02; assay: Anti-tumor effect in PAN02 tumor-bearing mouse model; type: in vivo, mouse (C57/BL6); conditions: PAN02 tumor-bearing mice, 50 mg/kg intragastric twice a day
Source text: The invention used the PAN02 tumor-bearing mouse model to test the anti-tumor effect of the example compounds. The PAN02 tumor-bearing mouse model was the mouse pancreatic cancer cell line PAN02 purchased from Guangzhou Ginnio Biological Technology Co., Ltd., and the culture medium used was DMEM containing 10% fetal bovine serum. The mouse strain used for tumor-bearing was C57/BL6 purchased from Shanghai Slac Laboratory Animal Co., Ltd. At the time of implanting, the PAN02 cells in the logarithmic growth phase were collected, and mixed with the BDMatrigel matrix gel that reduced the growth factor to 50 million cells/ml. Each mouse was implanted subcutaneously with 100 μL of 5 million cells. When the tumor grew to about 100 cubic millimeters, animals were randomly divided into groups with 8 animals per group. Drug administration was started (D0).
Mode of administration: intragastrical administration, twice a day.
(§1) Formulation prescription: 3% two methyl acetamide and 20% hydroxypropyl-β-cyclodextrin. • Administration period and tumor measurement: The administration period was 13 days. The tumor volume was measured, the mice were weighed, and the data were recorded, 3 times a week. The calculation formula of tumor volume (V) is: V=½a×b2, where a and b represent length and width respectively. The calculation formula of T/C is: T/C (%)=100×ΔT/ΔC. Tumor inhibition rate (%)=1−T/C (%). • Experimental results: the anti-tumor effect of the compound of Example 15 in PAN02 tumor-bearing mouse model is shown in the following table.

[3] = test system: mouse rectal cancer cell line Colon26; assay: Anti-tumor effect in Colon26 tumor-bearing mouse model; type: in vivo, mouse (Balb/c); conditions: Colon26 tumor-bearing mice, 25 mg/kg intragastric twice a day
Source text: The present invention further used the Colon26 tumor-bearing mouse model to test the anti-tumor effect of the example compounds. The Colon26 tumor-bearing mouse model was the mouse rectal cancer cell line Colon26 purchased from Guangzhou Ginio Biological Technology Co., Ltd., and the culture medium used was RPMI1640 containing 10% fetal bovine serum. The mouse strain used for tumor-bearing was Balb/c purchased from Sino-British SIPPR/BK Lab Animal Co., Ltd. At the time of implanting, the Colon26 cells in logarithmic growth phase were collected and mixed to 10 million cells/ml. Each mouse was implanted subcutaneously with 100 μl of one million cells. When the tumor grew to about 100 cubic millimeters, animals were randomly divided into groups with 8 animals per group. Drug administration was started (D0).
Mode of administration: intragastric administration, twice a day.
as §1, with “3% dimethylacetamide” for “3% two methyl acetamide”, “times per” for “times a”, “is: V=½a×b2” for “is: V=½a×b2,”, “and width,” for “and width”, “results: The antitumor” for “results: the anti-tumor”, “in Colon26” for “in PAN02”
Under the same experimental conditions, the dosage was adjusted. The anti-tumor effect of Example 15 and its optical isomers 18-(1) and 18-(2) in Colon26 tumor-bearing mouse model is shown in the following table: […]

For `NS(=O)(=O)NCCNc1nonc1C(=NO)Nc1ccc(F)c(Br)c1` [INCB-24360, Epacadostat, reference compound], the AUC(0-inf) [1] was 2.45 µg·h/mL, the Cmax [1] was 0.306 µg/mL and the Tmax [1] was 1 h. For the same molecule, the half-life [1] was 3.5 h, the “Average tumor volume (mm^3 ± SEM) D0” value ([2]; D0 (start of administration)) was 102.8 ± 3.4 mm^3 and the “Average tumor volume (mm^3 ± SEM) D12” value ([2]; D12) was 242.1 ± 23.4 mm^3. The “T/C (%) D12” value ([2]; D12) was 60.3%, the “Tumor inhibition rate (%) D12” value ([2]; D12, 50 mg/kg) was 39.7% and the “Average tumor volume (mm^3 ± SEM) D0” value ([3]; D0 (start of administration)) was 95.3 ± 2.4 mm^3. The “Average tumor volume (mm^3 ± SEM) D12” value ([3]; D12) was 565.2 ± 10.9 mm^3, the “T/C (%) D12” value ([3]; D12) was 21.6% and the “Tumor inhibition rate (%) D12” value ([3]; D12, 25 mg/kg) was 78.4%.
